# Assay results published in patent publication US11890287B2, “Therapeutic compounds and compositions for treating social disorders and substance use disorders” (Kinoxis Therapeutics Pty Ltd, priority 2015, dated 2024).
# Where “and” joins values, the source holds several entries; their conditions need not be identical. Identical values can stand only once.
# Assays:
# D2 = biological target: T1, D2 (Homo sapiens, UniProt P14416); test: PDSP orthosteric binding screen
# T1 construct: Psychoactive Drug Screening Program (PDSP)
# T1 sequence (P14416 whole entry): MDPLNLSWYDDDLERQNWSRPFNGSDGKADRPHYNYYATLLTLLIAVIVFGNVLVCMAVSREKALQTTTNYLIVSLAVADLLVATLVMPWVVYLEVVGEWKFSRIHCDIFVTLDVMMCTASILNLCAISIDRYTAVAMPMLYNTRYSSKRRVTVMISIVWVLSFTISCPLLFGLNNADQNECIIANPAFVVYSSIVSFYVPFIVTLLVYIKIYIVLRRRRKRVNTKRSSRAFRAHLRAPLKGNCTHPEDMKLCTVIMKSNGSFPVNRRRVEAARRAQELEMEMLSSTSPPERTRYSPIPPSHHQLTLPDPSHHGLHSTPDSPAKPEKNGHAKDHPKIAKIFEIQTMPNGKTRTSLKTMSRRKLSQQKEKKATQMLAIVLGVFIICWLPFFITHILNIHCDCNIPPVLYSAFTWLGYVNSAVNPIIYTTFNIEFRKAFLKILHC
# Excerpt: (§1) Comprehensive screening of affinity for the orthosteric binding sites for numerous receptors from the Psychoactive Drug Screening Program (PDSP) have failed as yet to identify a target, despite the powerful OT-like behavioural effects of the compound evident in vivo and the clear activation of brain OT systems evident from our Fos data.
# 5-HT6 = biological target: T2, 5-HT6 (Homo sapiens, UniProt P50406); test: PDSP orthosteric binding screen
# T2 construct: Psychoactive Drug Screening Program (PDSP)
# T2 sequence (P50406 whole entry, species assumed): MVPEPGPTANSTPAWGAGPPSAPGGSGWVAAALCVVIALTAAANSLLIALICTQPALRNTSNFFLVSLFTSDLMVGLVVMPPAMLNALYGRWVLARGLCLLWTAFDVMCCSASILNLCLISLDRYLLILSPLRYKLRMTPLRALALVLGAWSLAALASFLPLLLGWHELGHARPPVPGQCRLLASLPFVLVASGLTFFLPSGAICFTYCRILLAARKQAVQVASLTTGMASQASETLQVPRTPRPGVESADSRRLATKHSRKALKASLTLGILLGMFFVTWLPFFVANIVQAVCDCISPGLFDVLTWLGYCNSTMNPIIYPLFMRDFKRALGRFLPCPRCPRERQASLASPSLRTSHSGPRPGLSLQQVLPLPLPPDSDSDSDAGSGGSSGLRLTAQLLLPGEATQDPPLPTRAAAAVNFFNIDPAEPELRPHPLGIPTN
# Excerpt: as §1
# Beta1 = biological target: T3, Beta1 (Homo sapiens, UniProt P08588); test: PDSP orthosteric binding screen
# T3 construct: Psychoactive Drug Screening Program (PDSP)
# T3 sequence (P08588 whole entry): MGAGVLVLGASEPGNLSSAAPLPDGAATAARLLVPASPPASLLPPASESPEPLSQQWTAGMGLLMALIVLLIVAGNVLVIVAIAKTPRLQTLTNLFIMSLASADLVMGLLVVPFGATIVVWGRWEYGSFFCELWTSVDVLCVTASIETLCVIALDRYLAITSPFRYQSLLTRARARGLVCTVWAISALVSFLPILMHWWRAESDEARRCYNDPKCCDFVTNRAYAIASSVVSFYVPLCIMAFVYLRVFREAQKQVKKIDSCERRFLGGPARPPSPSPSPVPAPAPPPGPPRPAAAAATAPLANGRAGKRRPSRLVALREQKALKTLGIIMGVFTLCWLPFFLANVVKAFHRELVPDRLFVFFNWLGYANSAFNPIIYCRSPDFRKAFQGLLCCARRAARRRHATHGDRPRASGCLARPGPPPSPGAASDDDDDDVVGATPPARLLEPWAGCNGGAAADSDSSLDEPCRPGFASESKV
# Excerpt: as §1
# H2 = biological target: T4, H2 (Homo sapiens, UniProt P25021); test: PDSP orthosteric binding screen
# T4 construct: Psychoactive Drug Screening Program (PDSP)
# T4 sequence (P25021 whole entry): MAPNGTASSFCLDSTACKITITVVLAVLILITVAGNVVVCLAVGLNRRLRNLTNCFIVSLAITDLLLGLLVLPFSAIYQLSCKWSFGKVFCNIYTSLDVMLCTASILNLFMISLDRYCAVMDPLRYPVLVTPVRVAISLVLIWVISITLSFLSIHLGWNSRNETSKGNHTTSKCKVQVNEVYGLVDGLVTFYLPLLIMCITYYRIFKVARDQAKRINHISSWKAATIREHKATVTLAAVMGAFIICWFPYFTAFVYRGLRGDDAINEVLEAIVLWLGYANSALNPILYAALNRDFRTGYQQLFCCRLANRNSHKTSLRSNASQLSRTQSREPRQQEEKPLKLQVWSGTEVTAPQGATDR
# Excerpt: as §1
# PBR = biological target: T5, PBR (Rattus norvegicus, UniProt P16257); test: PDSP orthosteric binding screen
# T5 construct: Psychoactive Drug Screening Program (PDSP)
# Excerpt: as §1
# DAT = biological target: T6, DAT (Homo sapiens, UniProt Q01959); test: PDSP orthosteric binding screen
# T6 construct: Psychoactive Drug Screening Program (PDSP)
# T6 sequence (Q01959 whole entry, species assumed): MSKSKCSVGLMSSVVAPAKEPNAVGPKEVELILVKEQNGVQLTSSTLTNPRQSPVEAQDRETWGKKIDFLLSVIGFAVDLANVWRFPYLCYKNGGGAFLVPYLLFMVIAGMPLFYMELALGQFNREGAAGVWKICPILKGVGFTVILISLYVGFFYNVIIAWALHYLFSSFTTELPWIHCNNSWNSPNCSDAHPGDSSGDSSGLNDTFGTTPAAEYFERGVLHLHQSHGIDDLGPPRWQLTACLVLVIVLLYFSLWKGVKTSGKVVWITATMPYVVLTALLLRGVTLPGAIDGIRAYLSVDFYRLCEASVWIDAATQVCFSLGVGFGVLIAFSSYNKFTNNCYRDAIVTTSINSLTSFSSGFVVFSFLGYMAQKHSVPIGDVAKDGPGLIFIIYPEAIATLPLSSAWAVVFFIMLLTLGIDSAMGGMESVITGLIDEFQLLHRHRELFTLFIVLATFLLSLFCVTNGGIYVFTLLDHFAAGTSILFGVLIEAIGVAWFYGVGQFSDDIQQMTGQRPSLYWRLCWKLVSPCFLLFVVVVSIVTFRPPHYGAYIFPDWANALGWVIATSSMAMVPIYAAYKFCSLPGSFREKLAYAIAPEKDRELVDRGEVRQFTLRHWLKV
# Excerpt: as §1
# 5-HT2C = biological target: T7, 5-HT2C (Homo sapiens, UniProt P28335); test: PDSP orthosteric binding screen
# T7 construct: Psychoactive Drug Screening Program (PDSP)
# T7 sequence (P28335 33-458, species assumed): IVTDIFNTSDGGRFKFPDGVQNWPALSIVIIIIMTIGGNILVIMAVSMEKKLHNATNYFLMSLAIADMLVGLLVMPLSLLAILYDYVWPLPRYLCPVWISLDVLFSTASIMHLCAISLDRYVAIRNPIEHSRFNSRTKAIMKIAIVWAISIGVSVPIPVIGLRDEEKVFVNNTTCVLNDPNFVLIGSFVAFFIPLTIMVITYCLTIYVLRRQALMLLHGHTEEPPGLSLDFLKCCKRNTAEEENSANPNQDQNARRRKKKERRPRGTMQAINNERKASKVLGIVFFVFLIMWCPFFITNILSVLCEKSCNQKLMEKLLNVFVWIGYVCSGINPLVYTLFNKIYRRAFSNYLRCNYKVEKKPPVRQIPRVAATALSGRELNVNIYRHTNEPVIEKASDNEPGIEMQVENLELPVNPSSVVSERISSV
# Excerpt: as §1
# Alpha1B = biological target: T8, Alpha1B (Homo sapiens, UniProt P35368); test: PDSP orthosteric binding screen
# T8 construct: Psychoactive Drug Screening Program (PDSP)
# Excerpt: as §1
# Beta2 = biological target: T9, Beta2 (Homo sapiens, UniProt P07550); test: PDSP orthosteric binding screen
# T9 construct: Psychoactive Drug Screening Program (PDSP)
# T9 sequence (P07550 whole entry): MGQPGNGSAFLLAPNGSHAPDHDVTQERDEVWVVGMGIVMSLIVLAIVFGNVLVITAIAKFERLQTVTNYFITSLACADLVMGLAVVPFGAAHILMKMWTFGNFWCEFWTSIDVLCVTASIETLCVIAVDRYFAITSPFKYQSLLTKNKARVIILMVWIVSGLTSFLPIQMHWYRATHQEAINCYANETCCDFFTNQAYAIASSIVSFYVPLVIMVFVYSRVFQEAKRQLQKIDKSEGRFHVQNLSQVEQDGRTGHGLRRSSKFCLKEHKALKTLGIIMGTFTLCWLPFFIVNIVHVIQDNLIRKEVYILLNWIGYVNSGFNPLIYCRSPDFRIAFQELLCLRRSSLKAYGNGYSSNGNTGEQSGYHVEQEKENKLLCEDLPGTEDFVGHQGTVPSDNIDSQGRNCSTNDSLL
# Excerpt: as §1
# 5-ht1e = biological target: T10, 5-ht1e (Homo sapiens, UniProt P28566); test: PDSP orthosteric binding screen
# T10 construct: Psychoactive Drug Screening Program (PDSP)
# T10 sequence (P28566 whole entry, species assumed): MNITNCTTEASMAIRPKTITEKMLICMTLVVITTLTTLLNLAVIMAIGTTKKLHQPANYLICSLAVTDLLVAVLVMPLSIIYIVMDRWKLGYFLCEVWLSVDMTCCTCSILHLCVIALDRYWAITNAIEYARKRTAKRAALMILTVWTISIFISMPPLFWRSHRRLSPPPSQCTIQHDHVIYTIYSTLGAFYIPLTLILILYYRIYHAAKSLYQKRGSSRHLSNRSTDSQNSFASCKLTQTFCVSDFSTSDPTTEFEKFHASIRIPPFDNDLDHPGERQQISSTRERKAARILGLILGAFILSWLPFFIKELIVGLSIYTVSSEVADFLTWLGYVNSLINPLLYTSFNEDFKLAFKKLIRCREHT
# Excerpt: as §1
# H3 = biological target: T11, H3 (Homo sapiens, UniProt Q9Y5N1); test: PDSP orthosteric binding screen
# T11 construct: Psychoactive Drug Screening Program (PDSP)
# T11 sequence (Q9Y5N1 whole entry): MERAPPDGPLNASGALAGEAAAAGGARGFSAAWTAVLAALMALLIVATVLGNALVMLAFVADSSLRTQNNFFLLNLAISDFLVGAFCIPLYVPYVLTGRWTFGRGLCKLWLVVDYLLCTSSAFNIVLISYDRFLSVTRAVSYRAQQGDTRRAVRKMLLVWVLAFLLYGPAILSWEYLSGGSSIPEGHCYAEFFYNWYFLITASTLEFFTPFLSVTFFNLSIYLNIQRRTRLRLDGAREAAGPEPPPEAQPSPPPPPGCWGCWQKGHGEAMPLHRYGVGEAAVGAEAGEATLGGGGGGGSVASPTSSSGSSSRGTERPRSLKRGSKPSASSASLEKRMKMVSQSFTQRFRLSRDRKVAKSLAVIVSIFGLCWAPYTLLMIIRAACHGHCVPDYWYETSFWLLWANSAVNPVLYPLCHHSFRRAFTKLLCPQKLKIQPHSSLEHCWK
# Excerpt: as §1
# BZP Rat Brain Site = test: PDSP orthosteric binding screen
# Excerpt: as §1
# M1 = biological target: T12, M1 (Homo sapiens, UniProt P11229); test: PDSP orthosteric binding screen
# T12 construct: Psychoactive Drug Screening Program (PDSP)
# T12 sequence (P11229 whole entry): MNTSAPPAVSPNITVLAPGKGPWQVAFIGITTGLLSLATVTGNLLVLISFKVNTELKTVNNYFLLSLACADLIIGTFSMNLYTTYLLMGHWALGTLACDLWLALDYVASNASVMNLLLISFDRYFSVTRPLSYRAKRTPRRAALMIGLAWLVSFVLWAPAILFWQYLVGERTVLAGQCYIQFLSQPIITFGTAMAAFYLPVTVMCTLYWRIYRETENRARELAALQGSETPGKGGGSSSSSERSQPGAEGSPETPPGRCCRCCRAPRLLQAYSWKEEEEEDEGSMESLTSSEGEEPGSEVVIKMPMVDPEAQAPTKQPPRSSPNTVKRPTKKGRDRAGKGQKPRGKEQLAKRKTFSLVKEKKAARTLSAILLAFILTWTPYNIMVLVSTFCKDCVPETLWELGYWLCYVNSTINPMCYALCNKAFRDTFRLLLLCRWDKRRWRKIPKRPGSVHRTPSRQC
# Excerpt: as §1
# V1B = V1B (Homo sapiens, UniProt P47901); test: Orthosteric binding, AVP receptors
# Chain of V1B (P47901 whole entry): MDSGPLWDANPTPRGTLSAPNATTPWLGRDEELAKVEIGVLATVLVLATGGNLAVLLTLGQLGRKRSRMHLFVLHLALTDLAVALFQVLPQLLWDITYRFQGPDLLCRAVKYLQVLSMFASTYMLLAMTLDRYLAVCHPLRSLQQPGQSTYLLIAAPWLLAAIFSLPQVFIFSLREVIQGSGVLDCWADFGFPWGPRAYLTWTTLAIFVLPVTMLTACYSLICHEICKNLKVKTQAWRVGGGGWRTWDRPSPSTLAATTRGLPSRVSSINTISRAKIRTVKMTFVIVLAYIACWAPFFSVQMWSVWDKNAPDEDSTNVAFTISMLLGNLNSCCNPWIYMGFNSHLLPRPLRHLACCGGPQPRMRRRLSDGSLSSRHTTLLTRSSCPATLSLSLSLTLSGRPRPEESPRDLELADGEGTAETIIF
# Sprague Dawley rats = test: Acute toxicity, single intravenous bolus dose of 50 mg/kg, one week dose range finding study; assay type: in vivo
# Method: The acute toxicity of SOC-1 test items was assessed in Sprague Dawley rats following intravenous administration of a single bolus dose of 50 mg/kg. A total of n=3 adult female rats were treated and then observed for 7 days prior to termination on Study Day 8 without necropsy.
# The design of this acute single dose toxicity study in rats was adapted from OECD Guideline for Testing of Chemicals No. 420 Acute Oral Toxicity—Fixed Dose Procedure’ 2001 (3) and the test facility Standard Operating Procedure SP_T002 ‘Dose Range Finding Study in Rodents’. The study procedures were conducted as outlined below and according to related test facility Standard Operating Procedures.
# Briefly, on completion of the acclimation period the study was commenced with administration of the treatment on Study Day 1. […] Body weights were also collected daily. On Study Day 8 the surviving animals were culled without necropsy.
# The 5 mg/mL test item treatments were administered as a bolus intravenous injection in a dose volume of 10 mL/kg on Study Day 1 with restraint on conscious animals.
# Morbidity and mortality observations were recorded daily during the acclimation period and on Day 8, and twice daily from Day 1 through Day 7.
# Clinical observations were conducted at least once during the acclimation period. Clinical observations were conducted at least once daily from Day 1 up to and including the day prior to termination. On the day of treatment the animals were monitored continuously for the first 30 minutes post-treatment with formal observations made at 30 minutes, 1 hour and 4 hours post-treatment.
# The clinical observations included examination of animals for changes in skin and fur, eyes and mucous membranes, respiratory and circulatory function, gait and posture, behaviour, tremors or convulsions and any other abnormal findings.
# The clinical observations also included daily examination of the tail for any injection site reaction (for example, erythema or oedema).
# Body weight was recorded once during the acclimation period and daily from the time of treatment on Day 1 to Day 8.
smiles,measurement,setting,value
Cl.Cn1ncc2c1Nc1ccccc1NC2 [SOC-1],affinity for D2,D2,no notable affinity
same,affinity for 5-HT6,5-HT6,no notable affinity
same,affinity for Beta1,Beta1,no notable affinity
same,affinity for H2,H2,no notable affinity
same,affinity for PBR,PBR,no notable affinity
same,affinity for DAT,DAT,no notable affinity
same,affinity for 5-HT2C,5-HT2C,no notable affinity
same,affinity for Alpha1B,Alpha1B,no notable affinity
same,affinity for Beta2,Beta2,no notable affinity
same,affinity for 5-ht1e,5-ht1e,no notable affinity
same,affinity for H3,H3,no notable affinity
same,affinity for BZP Rat Brain Site,BZP Rat Brain Site,no notable affinity
same,affinity for M1,M1,no notable affinity
same,affinity for the orthosteric binding site of V1B,V1B,Nor does SOC-1 show any affinity
same,body weight findings,Sprague Dawley rats; 50 mg/kg IV,no body weight findings that were considered treatment related
same,clinical findings post-dose on Study Day 1,Sprague Dawley rats; 50 mg/kg IV,mild piloerection and reduced activity levels
same,injection site reactions,Sprague Dawley rats; 50 mg/kg IV,no findings of injection site reactions
same,morbidity and mortality,Sprague Dawley rats; 50 mg/kg IV,no unscheduled deaths or findings of morbidity
same,time to resolution of clinical findings post-dose,Sprague Dawley rats; 50 mg/kg IV,≤ 4 h
same,tolerability,Sprague Dawley rats; 50 mg/kg IV,tolerated
same,vocalisation and flinch reactions at the time of dosing,Sprague Dawley rats; 50 mg/kg IV in Hartman's solution,not associated with similar reactions
same,"Body Weight, mean ± SD","Sprague Dawley rats; 50 mg/kg IV, Study Day 1",224.30 ± 7.45 g
same,"Body weight, individual rats","Sprague Dawley rats; 50 mg/kg IV, Study Day 1",228.4 grams and 215.7 grams and 228.8 grams
same,"Body Weight, mean ± SD","Sprague Dawley rats; 50 mg/kg IV, Study Day 2",223.07 ± 4.37 g
same,"Body weight, individual rats","Sprague Dawley rats; 50 mg/kg IV, Study Day 2",220.9 grams and 220.2 grams and 228.1 grams
same,"Body Weight, mean ± SD","Sprague Dawley rats; 50 mg/kg IV, Study Day 3",226.87 ± 4.33 g
same,"Body weight, individual rats","Sprague Dawley rats; 50 mg/kg IV, Study Day 3",225.1 grams and 223.7 grams and 231.8 grams
same,"Body Weight, mean ± SD","Sprague Dawley rats; 50 mg/kg IV, Study Day 4",223.03 ± 5.34 g
same,"Body weight, individual rats","Sprague Dawley rats; 50 mg/kg IV, Study Day 4",229.2 grams and 220.1 grams and 219.8 grams
same,"Body Weight, mean ± SD","Sprague Dawley rats; 50 mg/kg IV, Study Day 5",222.77 ± 4.75 g
same,"Body weight, individual rats","Sprague Dawley rats; 50 mg/kg IV, Study Day 5",219.0 grams and 221.2 grams and 228.1 grams
same,"Body Weight, mean ± SD","Sprague Dawley rats; 50 mg/kg IV, Study Day 6",223.80 ± 3.70 g
same,"Body weight, individual rats","Sprague Dawley rats; 50 mg/kg IV, Study Day 6",220.7 grams and 222.8 grams and 227.9 grams
same,"Body Weight, mean ± SD","Sprague Dawley rats; 50 mg/kg IV, Study Day 7",226.60 ± 2.57 g
same,"Body weight, individual rats","Sprague Dawley rats; 50 mg/kg IV, Study Day 7",225.7 grams and 224.6 grams and 229.5 grams
same,"Body Weight, mean ± SD","Sprague Dawley rats; 50 mg/kg IV, Study Day 8",228.03 ± 3.81 g
same,"Body weight, individual rats","Sprague Dawley rats; 50 mg/kg IV, Study Day 8",229.1 grams and 223.8 grams and 231.2 grams
same,Hunched posture or gait- mild (incidence),"Sprague Dawley rats; 50 mg/kg IV, n 3",1
same,No abnormalities detected: (incidence),"Sprague Dawley rats; 50 mg/kg IV, n 3",0
same,Piloerection- mild (incidence),"Sprague Dawley rats; 50 mg/kg IV, n 3",1
same,Reduced activity (incidence),"Sprague Dawley rats; 50 mg/kg IV, n 3",3
